Results: US9161927B2, “Drug combinations containing PDE4 inhibitors and NSAIDs” (Boehringer Ingelheim International GmbH, priority 2009, dated 2015)
Read-outs that look alike come from different tables or passages of the source.

How the values were obtained:
[1] = test system: male Wistar rats; experiment: Experiment 4: roflumilast-mediated diarrhoea and mesentery histopathology in rats, with or without SC-560 or lumiracoxib; type: in vivo, rat; conditions: affected animals out of animals examined; p.o. for four days, 95 hours after t0; roflumilast 10 mg/kg at 1300, SC-560 or lumiracoxib 2 mg/kg at 0800 and 1700
Description: (§1) Six male Wistar rats in each group were treated for four days with the following substances (all substances are given p.o.=orally):
(§2) Group 1 (“control group”): Six male Wistar rats were given a daily dose of 0.5% Natrosol (placebo) at the times 0800, 1300 and 1700 hours.
(§3) Group 2 (“roflumilast group”): Six male Wistar rats were given a daily dose of 0.5% Natrosol (placebo) at 0800 and 1700 hours and 10 mg/kg roflumilast (PDE4 inhibitor) at 1300 hours.
(§4) Group 6 (“lumiracoxib group”): Six male Wistar rats were given a daily dose of 2 mg/kg lumiracoxib (NSAID, selective for COX-2) at the times 0800 and 1700 hours and 0.5% Natrosol at 1300 hours.
(§5) At the end of the experiment (95 hours after t0 (=the time of the first administration on day 1, 0800 hours)) the rats from the individual groups were examined phenotypically and histopathologically for the presence of multifocal perivascular mononuclear infiltration (=inflammation parameter) in the mesentery and for the proliferation of fibroblasts in the mesentery. In addition, the occurrence of diarrhoea in the rats from the different groups was noted.

[2] = test system: male Wistar rats; experiment: Experiment 3: roflumilast-mediated weight loss, leukocytosis and neutrophilia in rats, with or without SC-560 or lumiracoxib; type: in vivo, rat; conditions: for leukocytosis (white blood cells, FIG. 2B on the left) / neutrophilia (neutrophils in % of white blood cells, FIG. 2B on the right): 95 hours after t0; for leukocytosis (white blood cells, FIG. 2B on the left) / neutrophilia (neutrophils in % of white blood cells, FIG. 2B on the right) / weight loss (body weight as percentage change from t0, FIG. 2A): p.o. for four days, roflumilast 10 mg/kg at 1300, SC-560 or lumiracoxib 2 mg/kg at 0800 and 1700, compared with control group
Description: as §1, §2, §3, §4
The average±standard deviation of the body weights at time t0 was 306±11 g.
At the end of the experiment (95 hours after t0 (=the time of the first administration on day 1, 0800 hours)) the proportion of white blood cells (×1000 cells/μl blood, FIG. 2B, left-hand Figure) and the proportion of neutrophils (in % of white blood cells, FIG. 2B, right-hand Figure) were determined from the blood of 5 of the rats from the individual groups.

[3] = test system: male Wistar rats; type: in vivo; conditions: affected animals out of animals examined; p.o. for four days, 95 hours after t0; roflumilast 10 mg/kg at 1300, diclofenac 1 mg/kg at 0800 and 1700
Description: as §1, §2, §3
(§6) Group 3 (“roflumilast+diclofenac group”): Six male Wistar rats were given a daily dose of 1 mg/kg diclofenac (NSAID) at the times 0800 and 1700 hours and 10 mg/kg roflumilast (PDE4 inhibitor) at 1300 hours.
(§7) Group 4 (“diclofenac group”): Six male Wistar rats were given a daily dose of 1 mg/kg diclofenac (NSAID) at the times 0800 and 1700 hours and 0.5% Natrosol (placebo) at 1300 hours.
(§8) For pharmacokinetic analysis (determining the plasma levels of the substances) on day 4 one rat from each group was used; these rats were no longer available for other parameters under investigation.
as §5

[4] = test system: male Wistar rats; experiment: Experiment 1: roflumilast-mediated weight loss, leukocytosis and neutrophilia in rats, with or without diclofenac
Description: as §1, §2, §3, §6, §7, §8
The average±standard deviation of the body weights at time t0 was 355±17 g.
At the end of the experiment (95 hours after t0 (=the time of the first administration on day 1, 0800)) the proportion of white blood cells (×1000 cells/μl blood, FIG. 1B, left-hand Figure) and the proportion of neutrophils (in % of white blood cells, FIG. 1B, right-hand Figure) were determined from the blood of 4 or 5 of the rats from the individual groups.

[5] = 95 hours after t0, p.o. for four days, roflumilast 10 mg/kg at 1300, diclofenac 1 mg/kg at 0800 and 1700, compared with control group
[6] = NSAID 2 mg/kg at 0800 and 1700 co-administered with roflumilast 10 mg/kg at 1300, p.o. for four days

SMILES	Diarrhoea [1]	Mesentery: Proliferation of fibroblasts [1]	Mesentery: multifocal perivascular mononuclear infiltration (=inflammation parameter) [1]	leukocytosis (white blood cells, FIG. 2B on the left) [2]	neutrophilia (neutrophils in % of white blood cells, FIG. 2B on the right) [2]	weight loss (body weight as percentage change from t0, FIG. 2A) [2]	Diarrhoea [3]	Mesentery: Proliferation of fibroblasts [3]	Mesentery: multifocal perivascular mononuclear infiltration (=inflammation parameter) [3]	rats which died between day 4 and day 5 of the experiment ([4]; group of six rats, roflumilast 10 mg/kg p.o. daily)	leukocytosis (white blood cells, FIG. 1B on the left) [4, 5]	neutrophilia (neutrophils in % of white blood cells, FIG. 1B on the right) [4, 5]	weight loss (body weight as percentage change from t0, FIG. 1A) ([4]; p.o. for four days, roflumilast 10 mg/kg at 1300, diclofenac 1 mg/kg at 0800 and 1700, compared with control group)	protective effect on roflumilast-mediated leukocytosis [2, 6]	protective effect on roflumilast-mediated neutrophilia [2, 6]	protective effect on roflumilast-mediated weight loss [2, 6]
Cc1ccc(Nc2c(F)cccc2Cl)c(CC(=O)O)c1 [lumiracoxib]	0/6	0/5	0/5	very similar to the control groups	very similar to the control groups	very similar to the control groups										
O=C(Nc1c(Cl)cncc1Cl)c1ccc(OC(F)F)c(OCC2CC2)c1 [roflumilast]	2/6	5/5	5/5	observed	observed	observed	5/6	4/4	4/4	one rat						
O=C(O)Cc1ccccc1Nc1c(Cl)cccc1Cl [diclofenac]							0/6	0/5	0/5		very similar to the control groups	very similar to the control groups	very similar to the control groups			
COc1ccc(-n2nc(C(F)(F)F)cc2-c2ccc(Cl)cc2)cc1 [SC-560]	0/6			very similar to the control groups	very similar to the control groups	very similar to the control groups								absolutely no protective effect	absolutely no protective effect	absolutely no protective effect
